Measurements published in patent US12404249B2, “Heterocyclic derivatives and use thereof” (C&C RESEARCH LABORATORIES, priority 2018, dated 2025).

Columns and labels:
STAT3 = target: T1, STAT3 (Homo sapiens, UniProt P40763); assay: STAT3 activation inhibition assay (reporter gene assay, LNcaP stable cell line, IL-6 stimulated); assay type: cell-based; conditions: LNcaP stable cell line [plasmid STAT3-TA-luc], IL-6 10 ng/mL, 48 hours, luciferase activity; read-out: IC50 (μM) pSTAT3
T1 construct: endogenous in cells; host or cells: LNCaP (human prostate cancer) stably carrying pSTAT3-TA-luc reporter plasmid
Protocol: Cancer cell lines used for evaluating the compounds of the Examples were purchased from ATCC (American Type Culture Collection) or KCLB (Korean Cell Line Bank), and cultured according to the vendor's recommendation. The human prostate cancer cell line stably expressing the STAT3 promoter (LNcaP stable cell line [plasmid STAT3-TA-luc])—which was prepared to evaluate the inhibitory effect of the compounds of the Examples against dimerization of STAT3—was cultured in RPMI1640 (Cat no. 11875, Gibco), 10% fetal bovine serum (Cat no. SH30071.03, Hyclone) and 150 μg/mL G418 solution (Cat no. 04 727 894 001, Roche).
The reporter gene assay of LNcap stable cell line was carried out by the use of RPMI 1640 medium containing 3% DCC-FBS (without G-418). The cell line was dispensed into two (2) white 96-well plates at 30,000 cells/well/50 μL. The cell line was incubated for 24 hours under the condition of 37° C. and 5% CO2, and then the Example compounds of 50 mM DMSO stock were diluted to various concentrations and treated to two (2) white 96-well plates containing cells. Then, IL-6 was treated to a final concentration of 10 ng/mL. After the treatment of Example compounds and IL-6, the cells were cultured for 48 hours under the condition of 37° C. and 5% CO2. After 48 hours, the 96-well plates were observed under a microscope to record the presence or absence of drug precipitation and specificities, and the 96-well plates were kept at room temperature for 30 minutes. Then, in the case of the first 96-well plate, the culture medium on the plate was removed to measure the luciferase activity, and treated with passive lysis buffer at 20 µL/well and shaken for 30 minutes. The luciferase activity was measured on microLUMA LB96P (BERTHOLD) or Centro XS LB 960 (BERTHOLD) instrument using Luciferase assay system (Cat No. E1501, Promega Corporation). In the case of the second 96-well plate, 20 μL of Glo-mix solution was added to measure cytotoxicity by the compounds of the Examples, and the plate was well shaken for 10 minutes and analyzed on microLUMA LB96P (BERTHOLD) instrument using Glo-vial protocol. As a negative control, a 96 well-plate in which culture medium was added but cells were not plated was used. As a positive control, a 96 well-plate in which cells were plated and 0.1% DMSO and culture medium containing stimulation were added was used.
The results of evaluating the inhibitory effects of the compounds of the Examples against dimerization of STAT3 and STAT1 via STAT3 and STAT1 reporter gene assay are represented in Table 1.

[1] = tested on: prostate cancer cell line (LNCap); assay: Cell growth inhibition assay (Celltiter Glo); assay type: cell-based; conditions: Homo sapiens, LNCap cells, 120 hours incubation
Protocol: Cancer cell inhibitory effects by the compounds of the Examples were evaluated as follows. The prostate cancer cell line (LNCap) used was cultured under the condition according to the vendor's recommendation. LNCap was dispensed into a 96-well plate at 10,000 cells/well. After incubation under the condition of 37° C. and 5% CO2 for 24 hours, the Example compounds of 50 mM DMSO stock were diluted to various concentrations and treated to the 96-well plate containing cells. After treatment of the Example compounds, LNCap cells were incubated in an incubator (37° C., 5% CO2) for 120 hours. After each incubation time, the 96-well plate was observed under a microscope to record the presence or absence of drug precipitation and specificities, and the 96-well plate was kept at room temperature for 30 minutes. Then, after addition of 20 μL of Celltiter Glo solution, the 96-well plate was well shaken for 30 minutes. The growth inhibitory activity was measured on microLUMA LB96P (BERTHOLD) instrument using Glo-vial protocol. As a negative control, a 96 well-plate in which culture medium was added but cells were not plated was used. As a positive control, a 96 well-plate in which cells were plated and 0.1% DMSO instead of drugs was added was used. The results of growth inhibitory effects of the Example compounds on prostate cancer cell line are represented in Table 2.

T1 sequence (P40763 whole entry): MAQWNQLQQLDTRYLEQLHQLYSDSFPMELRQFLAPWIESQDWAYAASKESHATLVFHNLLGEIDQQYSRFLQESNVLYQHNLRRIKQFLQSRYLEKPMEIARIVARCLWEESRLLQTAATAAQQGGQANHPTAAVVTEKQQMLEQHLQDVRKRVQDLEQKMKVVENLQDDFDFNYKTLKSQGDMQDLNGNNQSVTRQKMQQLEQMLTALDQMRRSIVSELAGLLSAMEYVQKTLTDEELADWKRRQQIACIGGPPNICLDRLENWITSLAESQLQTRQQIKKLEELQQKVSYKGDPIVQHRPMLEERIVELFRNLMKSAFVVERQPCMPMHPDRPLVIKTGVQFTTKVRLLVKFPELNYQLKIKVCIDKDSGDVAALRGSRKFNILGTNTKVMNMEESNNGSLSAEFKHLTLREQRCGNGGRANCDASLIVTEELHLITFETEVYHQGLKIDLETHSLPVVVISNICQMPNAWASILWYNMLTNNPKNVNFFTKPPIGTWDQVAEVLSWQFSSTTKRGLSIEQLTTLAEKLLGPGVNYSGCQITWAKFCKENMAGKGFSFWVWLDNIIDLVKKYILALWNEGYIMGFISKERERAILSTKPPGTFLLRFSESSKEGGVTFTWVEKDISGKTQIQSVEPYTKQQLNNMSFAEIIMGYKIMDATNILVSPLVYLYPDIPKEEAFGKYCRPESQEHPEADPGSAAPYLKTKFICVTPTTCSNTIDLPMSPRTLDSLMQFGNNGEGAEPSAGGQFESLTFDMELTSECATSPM

Which IC50 (STAT3) does the source give for `O=[N+]([O-])c1ccc(CCNc2nc(Cl)nc3ncccc23)cc1` [Example 67, 2-chloro-N-(4-nitrophenethyl)pyrido[2,3-d]pyrimidin-4-amine] here?
Its IC50 is 4.4 µM.

What about the IC50 [1] of the same compound?
The IC50 was 3.7 µM.

With `COc1cc(NCCc2ccc(NS(C)(=O)=O)cc2)c2ccccc2n1` [Example 76, N-(4-(2-((2-methoxyquinolin-4-yl)amino)ethyl)phenyl)methanesulfonamide] as the compound, how does the IC50 (STAT3) read?
The IC50 was 1.2 µM.

And the IC50 [1]?
Its IC50 is 3.9 µM.

What does the source list for `CS(=O)(=O)Nc1ccc(CCNc2nccc3nccnc23)cc1` [Example 71, N-(4-(2-(pyrido[3,4-b]pyrazin-5-ylamino)ethyl)phenyl)methanesulfonamide]?
IC50 (STAT3): 9.6 µM; IC50 [1]: 20.9 µM

With `O=[N+]([O-])c1ccc(C(F)(F)CNc2ncnc3ccccc23)cc1` [Example 59, N-(2,2-difluoro-2-(4-nitrophenyl)ethyl)quinazolin-4-amine] as the compound, how does the IC50 (STAT3) read?
The IC50 was 0.35 µM.

And the IC50 [1]?
The IC50 was 0.16 µM.

Which IC50 (STAT3) does the source give for `O=[N+]([O-])c1ccc(CCNc2cc(Cl)nc3cccc(F)c23)cc1` [Example 29, 2-chloro-5-fluoro-N-(4-nitrophenethyl)quinolin-4-amine] here?
Its IC50 is 0.64 µM.

What about the IC50 [1] of the same compound?
The IC50 was 2.5 µM.

Which results are given for `O=C(O)COc1ccc2nc(Cl)cc(NCCc3ccc([N+](=O)[O-])cc3)c2c1` [Example 43, 2-((2-chloro-4-((4-nitrophenethyl)amino)quinolin-6-yl)oxy)acetic acid]?
IC50 (STAT3): > 50 µM; IC50 [1]: > 50 µM

For `CS(=O)(=O)Nc1ccc(CCNc2ncc(Cl)c3ccccc23)cc1` [Example 74, N-(4-(2-((4-chloroisoquinolin-1-yl)amino)ethyl)phenyl)methanesulfonamide], which IC50 (STAT3) is on record?
Its IC50 is 3.9 µM.

And the IC50 [1]?
Its IC50 is 13.1 µM.

What does the source list for `CS(=O)(=O)N(O)c1ccc(CCNc2cc(Cl)nc3ccccc23)cc1` [Example 2, N-(4-(2-((2-chloroquinolin-4-yl)amino)ethyl)phenyl)-N-hydroxymethanesulfonamide]?
IC50 (STAT3): 0.85 µM; IC50 [1]: 0.81 µM

Which IC50 (STAT3) does the source give for `NS(=O)(=O)c1ccc(CCN(CCc2ccccc2)c2cc(Cl)nc3ccccc23)cc1` [Example 4, 4-(2-((2-chloroquinolin-4-yl)(phenethyl)amino)ethyl)benzenesulfonamide] here?
The IC50 was 20.9 µM.

What about the IC50 [1] of the same compound?
Its IC50 is over 50 µM.

With `O=[N+]([O-])c1ccc(CCNc2cc(Cl)nc3cc(F)ccc23)cc1` [Example 30, 2-chloro-7-fluoro-N-(4-nitrophenethyl)quinolin-4-amine] as the compound, how does the IC50 (STAT3) read?
The IC50 was 2.2 µM.

And the IC50 [1]?
Its IC50 is 7 µM.

With `O=[N+]([O-])c1ccc(CCNc2cc(Cl)nc3ccc(F)cc23)cc1` [Example 14, 2-chloro-6-fluoro-N-(4-nitrophenethyl)quinolin-4-amine] as the compound, how does the IC50 (STAT3) read?
The IC50 was 0.59 µM.

What about the IC50 [1] of the same compound?
The IC50 was 1.9 µM.

Which IC50 (STAT3) does the source give for `O=[N+]([O-])c1ccc(CCNc2cc(Cl)nc3ccc(Cl)cc23)cc1` [Example 32, 2,6-dichloro-N-(4-nitrophenethyl)quinolin-4-amine] here?
Its IC50 is 3.3 µM.

And the IC50 [1]?
The IC50 was 33.8 µM.

Which results are given for `CS(=O)(=O)Nc1ccc(CCNc2ncnc3[nH]ccc23)cc1` [Example 70, N-(4-(2-((7H-pyrrolo[2,3-d]pyrimidin-4-yl)amino)ethyl)phenyl)methanesulfonamide]?
IC50 (STAT3): 3.8 µM; IC50 [1]: 10.8 µM

Which IC50 (STAT3) does the source give for `CS(=O)(=O)Nc1ccc(CCNc2ccnc3ccc(F)cc23)cc1` [Example 21, N-(4-(2-((6-fluoroquinolin-4-yl)amino)ethyl)phenyl)methanesulfonamide] here?
Its IC50 is 2.3 µM.

What about the IC50 [1] of the same compound?
The IC50 was 2.4 µM.

`O=[N+]([O-])c1ccc(CCNc2cc(Cl)nc3ccccc23)cc1` [Example 1, 2-chloro-N-(4-nitrophenethyl)quinolin-4-amine] was tested. Which IC50 (STAT3) did it give?
The IC50 was 2.6 µM.

What about the IC50 [1] of the same compound?
Its IC50 is 3.5 µM.

How did the IC50 (STAT3) turn out when `Cc1cccc2c(NCCc3ccc([N+](=O)[O-])cc3)cc(Cl)nc12` [Example 15, 2-chloro-8-methyl-N-(4-nitrophenethyl)quinolin-4-amine] was run?
Its IC50 is 3.1 µM.

And the IC50 [1]?
Its IC50 is 1.6 µM.

Which results are given for `CS(=O)(=O)Nc1ccc(CCNc2ncnc3scnc23)cc1` [Example 69, N-(4-(2-(thiazolo[5,4-d]pyrimidin-7-ylamino)ethyl)phenyl)methanesulfonamide]?
IC50 (STAT3): 0.046 µM; IC50 [1]: 0.13 µM

Which results are given for `CS(=O)(=O)Nc1ccc(CCNc2cncc3ccccc23)cc1` [Example 63, N-(4-(2-(isoquinolin-4-ylamino)ethyl)phenyl)methanesulfonamide]?
IC50 (STAT3): 0.75 µM; IC50 [1]: 1.9 µM

`O=[N+]([O-])c1ccc(CCNc2ncnc3ccc(F)cc23)cc1` [Example 61, 6-fluoro-N-(4-nitrophenethyl)quinazolin-4-amine] was tested. Which IC50 (STAT3) did it give?
Its IC50 is 0.053 µM.

What about the IC50 [1] of the same compound?
Its IC50 is 0.19 µM.

With `CS(=O)(=O)Nc1ccc(CCNc2ncnc3ccc(-c4ccc(Cl)cc4Cl)cc23)cc1` [Example 56, N-(4-(2-((6-(2,4-dichlorophenyl)quinazolin-4-yl)amino)ethyl)phenyl)methanesulfonamide] as the compound, how does the IC50 (STAT3) read?
The IC50 was 6.6 µM.

What about the IC50 [1] of the same compound?
Its IC50 is 13.9 µM.

With `O=[N+]([O-])c1ccc(CCNc2cc(Cl)nc3ccc(-c4ccc(Cl)cc4Cl)cc23)cc1` [Example 55, 2-chloro-6-(2,4-dichlorophenyl)-N-(4-nitrophenethyl)quinolin-4-amine] as the compound, how does the IC50 (STAT3) read?
Its IC50 is over 50 µM.

And the IC50 [1]?
The IC50 was over 50 µM.

For `CS(=O)(=O)Nc1ccc(CCNc2nc(C(F)(F)F)nc3ccccc23)cc1` [Example 53, N-(4-(2-((2-(trifluoromethyl)quinazolin-4-yl)amino)ethyl)phenyl)methanesulfonamide], which IC50 (STAT3) is on record?
Its IC50 is 3 µM.

What about the IC50 [1] of the same compound?
The IC50 was 15.7 µM.

What does the source list for `NC(=O)c1ccc2nc(Cl)cc(NCCc3ccc([N+](=O)[O-])cc3)c2c1` [Example 41, 2-chloro-4-((4-nitrophenethyl)amino)quinolin-6-carboxamide]?
IC50 (STAT3): 9.8 µM; IC50 [1]: > 50 µM

How did the IC50 (STAT3) turn out when `O=[N+]([O-])c1ccc(CCNc2cc(Cl)nc3ccc(Oc4ccccc4)cc23)cc1` [Example 33, 2-chloro-N-(4-nitrophenethyl)-6-phenoxyquinolin-4-amine] was run?
The IC50 was 6 µM.

What about the IC50 [1] of the same compound?
The IC50 was over 50 µM.

`CNc1cc(NCCc2ccc([N+](=O)[O-])cc2)c2ccccc2n1` [Example 51, N^2-methyl-N^4-(4-nitrophenethyl)quinolin-2,4-diamine 2,2,2-trifluoroacetate] was tested. Which IC50 (STAT3) did it give?
The IC50 was 24.1 µM.

What about the IC50 [1] of the same compound?
The IC50 was 27.7 µM.

Which IC50 (STAT3) does the source give for `COc1ccc2nc(Cl)cc(NCCc3ccc([N+](=O)[O-])cc3)c2c1` [Example 9, 2-chloro-6-methoxy-N-(4-nitrophenethyl)quinolin-4-amine] here?
Its IC50 is 3 µM.

What about the IC50 [1] of the same compound?
Its IC50 is 7.7 µM.

Which IC50 (STAT3) does the source give for `CS(=O)(=O)Nc1ccc(CCNc2nccc3occc23)cc1` [Example 73, N-(4-(2-(furo[3,2-c]pyridin-4-ylamino)ethyl)phenyl)methanesulfonamide] here?
Its IC50 is 35.9 µM.

And the IC50 [1]?
Its IC50 is 33 µM.

`CS(=O)(=O)Nc1ccc(CCNc2ccnc3c(F)cccc23)cc1` [Example 46, N-(4-(2-((8-fluoroquinolin-4-yl)amino)ethyl)phenyl)methanesulfonamide] was tested. Which IC50 (STAT3) did it give?
The IC50 was 33.7 µM.

And the IC50 [1]?
Its IC50 is 18.9 µM.

How did the IC50 (STAT3) turn out when `CS(=O)(=O)Nc1ccc(CCNc2cc(C(F)(F)F)nc3ccccc23)cc1` [Example 52, N-(4-(2-((2-(trifluoromethyl)quinolin-4-yl)amino)ethyl)phenyl)methanesulfonamide] was run?
The IC50 was 3.1 µM.

What about the IC50 [1] of the same compound?
The IC50 was 6.6 µM.

Which results are given for `NC(=O)COc1ccc2nc(Cl)cc(NCCc3ccc([N+](=O)[O-])cc3)c2c1` [Example 39, 2-((2-chloro-4-((4-nitrophenethyl)amino)quinolin-6-yl)oxy)acetamide]?
IC50 (STAT3): > 50 µM; IC50 [1]: > 50 µM
